In ChEMBL document CHEMBL1201862, “PubChem BioAssay data set” (2004):
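Each compound was tested at five concentrations against cells in 96-well plates for 48 hours. Abbreviation: GI50, concentration required for 50% inhibition of growth.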 Active and inactive are the calls of the source. Cut-off read from the data, not from the text of the source: active = GI50 up to about 1.1 µM and inactive = higher.

Tests used:
Experiment in all cases: NCI anticancer screen, dose series, 48 h
ACHN = tested on: ACHN
CCRF-CEM = tested on: CCRF-CEM
HCT-116 = tested on: HCT-116
HOP-92 = tested on: HOP-92
KM12 = tested on: KM12
LOX IMVI = tested on: LOX IMVI
MOLT-4 = tested on: MOLT-4
NCI-H226 = tested on: NCI-H226
NCI-H23 = tested on: NCI-H23
NCI-H522 = tested on: NCI-H522
OVCAR-8 = tested on: OVCAR-8
RPMI-8226 = tested on: RPMI-8226
SK-OV-3 = tested on: SK-OV-3
SN12C = tested on: SN12C
U-251 = tested on: U-251
UACC-257 = tested on: UACC-257
UACC-62 = tested on: UACC-62
A498 = tested on: A498
OVCAR-3 = tested on: OVCAR-3

Measured: GI50

[N-]=[N+]=NC1(Cc2ccccc2)C(=O)c2cccc3c2N(CCC3)C1=O (centres undefined)
inactive: ACHN > 100 µM | CCRF-CEM > 100 µM | HCT-116 > 100 µM | HOP-92 > 100 µM | KM12 > 100 µM | LOX IMVI > 100 µM | MOLT-4 > 100 µM | NCI-H226 > 100 µM | NCI-H23 > 100 µM | NCI-H522 > 100 µM | OVCAR-8 > 100 µM | RPMI-8226 > 100 µM | SK-OV-3 40.3 µM | SN12C > 100 µM | U-251 > 100 µM | UACC-257 > 100 µM | UACC-62 > 100 µM

CC(=O)OCCOCn1c2ccccc2c2c3c(c4c5ccccc5n(COCCOC(C)=O)c4c21)C(=O)N(Cc1ccccc1)C3=O
inactive: A498 > 100 µM | ACHN > 100 µM | CCRF-CEM > 100 µM | HCT-116 > 100 µM | HOP-92 55.5 µM | LOX IMVI > 100 µM | MOLT-4 > 100 µM | NCI-H226 > 100 µM | NCI-H23 > 100 µM | OVCAR-8 > 100 µM | RPMI-8226 > 100 µM | SK-OV-3 > 100 µM | SN12C > 100 µM | U-251 > 100 µM | UACC-257 > 100 µM | UACC-62 > 100 µM

O=C1CC(c2c(-c3ccccc3)[nH]c3ccccc23)C(=O)N1c1ccccc1 (centres undefined)
inactive: A498 > 100 µM | ACHN 40.5 µM | CCRF-CEM 63.7 µM | HCT-116 41.9 µM | KM12 44.4 µM | MOLT-4 61.5 µM | NCI-H226 > 100 µM | NCI-H23 78.7 µM | OVCAR-3 61.5 µM | OVCAR-8 > 100 µM | RPMI-8226 37.6 µM | SK-OV-3 > 100 µM | U-251 88.9 µM | UACC-257 > 100 µM | UACC-62 54.2 µM

O=C(O)C[C@H]1CCCCC12CCOC2=O (some centres undefined)
inactive: ACHN > 100 µM | CCRF-CEM > 100 µM | HCT-116 > 100 µM | HOP-92 > 100 µM | KM12 > 100 µM | LOX IMVI > 100 µM | MOLT-4 > 100 µM | NCI-H226 > 100 µM | NCI-H23 > 100 µM | NCI-H522 > 100 µM | OVCAR-3 > 100 µM | OVCAR-8 > 100 µM | RPMI-8226 > 100 µM | SK-OV-3 > 100 µM | SN12C > 100 µM | U-251 > 100 µM | UACC-257 > 100 µM | UACC-62 > 100 µM

Cc1ccc(S(=O)(=O)OC(c2ccc(Cl)cc2Cl)C2OC(=O)c3ccccc32)cc1 (centres undefined)
inactive: ACHN > 100 µM | CCRF-CEM 34.8 µM | HCT-116 30.8 µM | KM12 36 µM | LOX IMVI > 100 µM | MOLT-4 30.2 µM | NCI-H226 19.7 µM | NCI-H23 > 100 µM | NCI-H522 57.9 µM | OVCAR-3 40.4 µM | OVCAR-8 > 100 µM | RPMI-8226 36.7 µM | SN12C > 100 µM | U-251 56.4 µM | UACC-62 53.8 µM

N#CCc1c(-c2ccccc2)n(S(=O)(=O)c2ccccc2)c2ccccc12
inactive: ACHN > 100 µM | CCRF-CEM > 100 µM | HCT-116 37.1 µM | HOP-92 8.89 µM | KM12 > 100 µM | MOLT-4 41.3 µM | NCI-H226 > 100 µM | NCI-H23 33.7 µM | NCI-H522 > 10 µM | OVCAR-3 > 100 µM | OVCAR-8 > 100 µM | RPMI-8226 31.2 µM | U-251 > 100 µM | UACC-257 > 100 µM | UACC-62 94.2 µM

O=C1C2C3C=C4c5ccccc5N(c5ccccc5)C4(C2C(=O)N1c1ccccc1)C1C(=O)N(c2ccccc2)C(=O)C31 (centres undefined)
inactive: A498 2.34 µM | ACHN > 100 µM | CCRF-CEM 8.81 µM | HCT-116 > 100 µM | HOP-92 2.4 µM | KM12 > 100 µM | LOX IMVI > 100 µM | MOLT-4 3.3 µM | NCI-H23 > 100 µM | OVCAR-8 > 100 µM | SK-OV-3 > 10 µM | SN12C > 100 µM | U-251 > 100 µM | UACC-257 42.8 µM | UACC-62 3.61 µM

Cc1cc2c(cc1C)[n+]([O-])c(C(=O)C/C(=N/OCCCc1ccccc1)C(=O)Nc1cc(Cl)ccc1Cl)c(C)[n+]2[O-]
inactive: A498 > 100 µM | ACHN > 100 µM | CCRF-CEM 33.3 µM | HCT-116 > 100 µM | KM12 > 100 µM | LOX IMVI > 100 µM | MOLT-4 22.9 µM | NCI-H226 > 100 µM | NCI-H23 > 100 µM | NCI-H522 > 100 µM | OVCAR-3 > 100 µM | OVCAR-8 > 100 µM | SK-OV-3 > 100 µM | SN12C > 100 µM | U-251 > 100 µM | UACC-257 > 100 µM | UACC-62 > 100 µM

Cc1ccc(SSCCCCS(=O)O)cc1
inactive: A498 19.1 µM | ACHN 19 µM | CCRF-CEM 5.74 µM | HCT-116 20.7 µM | KM12 18.2 µM | LOX IMVI 9.79 µM | MOLT-4 > 100 µM | NCI-H23 17.9 µM | NCI-H522 12.5 µM | OVCAR-3 17.8 µM | OVCAR-8 > 10 µM | SK-OV-3 34.2 µM | SN12C 11.4 µM | U-251 10.6 µM | UACC-257 18.5 µM | UACC-62 15.3 µM

O=C1CCCC2=C1CC1=C(CCCC1=O)N2c1ccc([N+](=O)[O-])cc1
inactive: A498 > 100 µM | ACHN > 100 µM | CCRF-CEM > 100 µM | KM12 > 100 µM | LOX IMVI > 100 µM | MOLT-4 > 100 µM | NCI-H226 > 100 µM | NCI-H23 > 100 µM | OVCAR-3 > 100 µM | OVCAR-8 > 100 µM | RPMI-8226 > 100 µM | SK-OV-3 > 100 µM | SN12C > 100 µM | U-251 > 100 µM | UACC-62 > 100 µM

O=C1c2c(c3c4ccccc4n4c3c3c2c2ccccc2n3C/C=C\C4)C(=O)N1Cc1ccccc1
inactive: A498 > 100 µM | ACHN > 100 µM | CCRF-CEM > 100 µM | HCT-116 > 100 µM | KM12 > 100 µM | LOX IMVI > 100 µM | MOLT-4 > 100 µM | NCI-H226 > 100 µM | NCI-H23 > 100 µM | NCI-H522 > 100 µM | OVCAR-3 > 100 µM | OVCAR-8 > 100 µM | RPMI-8226 > 100 µM | SK-OV-3 > 100 µM | SN12C > 100 µM | U-251 46.5 µM | UACC-257 > 100 µM | UACC-62 > 100 µM

Cc1[nH]c2ccccc2c1C1Cc2ccccc2N1C(=O)/C=C\C(=O)O (centres undefined)
inactive: A498 32.1 µM | ACHN 96.4 µM | CCRF-CEM 31 µM | HCT-116 47.1 µM | HOP-92 38.2 µM | KM12 32.6 µM | LOX IMVI 18.6 µM | MOLT-4 28.4 µM | NCI-H226 27.9 µM | NCI-H23 56.4 µM | NCI-H522 27.6 µM | OVCAR-3 55.2 µM | SK-OV-3 > 100 µM | SN12C 29.3 µM | U-251 29.5 µM | UACC-257 19 µM | UACC-62 26.2 µM
